According to ChEMBL document CHEMBL2396528, “Synthesis of new conjugated coumarin-benzimidazole hybrids and their anticancer activity” (2013):

Tests used:
Type in all cases: functional
[1] = tested on: UO-31; assay: Cytotoxicity against human UO31 cells assessed as growth inhibition at 10 uM after 48 hrs by SRB assay relative to control; details: UO-31, 48 h, read-out: GI
[2] = tested on: HOP-92; assay: Cytotoxicity against human HOP92 cells assessed as growth inhibition at 10 uM after 48 hrs by SRB assay relative to control; details: HOP-92, 48 h, read-out: GI
[3] = tested on: K562; assay: Cytotoxicity against human K562 cells assessed as growth inhibition at 10 uM after 48 hrs by SRB assay relative to control; details: K562, 48 h, read-out: GI
[4] = tested on: U-251; assay: Cytotoxicity against human U251 cells assessed as growth inhibition at 10 uM after 48 hrs by SRB assay relative to control; details: U-251, 48 h, read-out: GI
[5] = tested on: SNB-75; assay: Cytotoxicity against human SNB75 cells assessed as growth inhibition at 10 uM after 48 hrs by SRB assay relative to control; details: SNB-75, 48 h, read-out: GI
[6] = tested on: SK-MEL-5; assay: Cytotoxicity against human SK-MEL-5 cells assessed as growth inhibition at 10 uM after 48 hrs by SRB assay relative to control; details: SK-MEL-5, 48 h, read-out: GI
[7] = tested on: SK-MEL-2; assay: Cytotoxicity against human SK-MEL-2 cells assessed as growth inhibition at 10 uM after 48 hrs by SRB assay relative to control; details: SK-MEL-2, 48 h, read-out: GI
[8] = tested on: OVCAR-4; assay: Cytotoxicity against human OVCAR4 cells assessed as growth inhibition at 10 uM after 48 hrs by SRB assay relative to control; details: OVCAR-4, 48 h, read-out: GI
[9] = tested on: HOP-62; assay: Cytotoxicity against human HOP62 cells assessed as growth inhibition at 10 uM after 48 hrs by SRB assay relative to control; details: HOP-62, 48 h, read-out: GI
[10] = Cytotoxicity against human NCI-ADR-RES cells assessed as growth inhibition at 10 uM after 48 hrs by SRB assay relative to control; details: read-out: GI
[11] = tested on: Malme-3M; assay: Cytotoxicity against human MALME-3M cells assessed as growth inhibition at 10 uM after 48 hrs by SRB assay relative to control; details: read-out: GI
[12] = tested on: UACC-62; assay: Cytotoxicity against human UACC62 cells assessed as growth inhibition at 10 uM after 48 hrs by SRB assay relative to control; details: UACC-62, 48 h, read-out: GI
[13] = tested on: MDA-MB-231; assay: Cytotoxicity against human MDA-MB-231 cells assessed as growth inhibition at 10 uM after 48 hrs by SRB assay relative to control; details: MDA-MB-231, 48 h, read-out: GI
[14] = tested on: A498; assay: Cytotoxicity against human A498 cells assessed as growth inhibition at 10 uM after 48 hrs by SRB assay relative to control; details: A498, 48 h, read-out: GI
[15] = tested on: BT-549; assay: Cytotoxicity against human BT549 cells assessed as growth inhibition at 10 uM after 48 hrs by SRB assay relative to control; details: BT-549, 48 h, read-out: GI
[16] = tested on: SK-OV-3; assay: Cytotoxicity against human SKOV3 cells assessed as growth inhibition at 10 uM after 48 hrs by SRB assay relative to control; details: SK-OV-3, 48 h, read-out: GI
[17] = tested on: MDA-MB-468; assay: Cytotoxicity against human MDA-MB-468 cells assessed as growth inhibition at 10 uM after 48 hrs by SRB assay relative to control; details: MDA-MB-468, 48 h, read-out: GI
[18] = tested on: RPMI-8226; assay: Cytotoxicity against human RPMI8226 cells assessed as growth inhibition at 10 uM after 48 hrs by SRB assay relative to control; details: RPMI-8226, 48 h, read-out: GI
[19] = tested on: NCI-H322M; assay: Cytotoxicity against human NCI-H322M cells assessed as growth inhibition at 10 uM after 48 hrs by SRB assay relative to control; details: read-out: GI
[20] = tested on: LOX IMVI; assay: Cytotoxicity against human LOXIMVI cells assessed as growth inhibition at 10 uM after 48 hrs by SRB assay relative to control; details: read-out: GI
[21] = tested on: IGROV-1; assay: Cytotoxicity against human IGROV1 cells assessed as growth inhibition at 10 uM after 48 hrs by SRB assay relative to control; details: IGROV-1, 48 h, read-out: GI
[22] = tested on: OVCAR-5; assay: Cytotoxicity against human OVCAR5 cells assessed as growth inhibition at 10 uM after 48 hrs by SRB assay relative to control; details: OVCAR-5, 48 h, read-out: GI
[23] = tested on: SW-620; assay: Cytotoxicity against human SW620 cells assessed as growth inhibition at 10 uM after 48 hrs by SRB assay relative to control; details: SW-620, 48 h, read-out: GI
[24] = tested on: DU-145; assay: Cytotoxicity against human DU145 cells assessed as growth inhibition at 10 uM after 48 hrs by SRB assay relative to control; details: DU-145, 48 h, read-out: GI
[25] = tested on: MCF7; assay: Cytotoxicity against human MCF7 cells assessed as growth inhibition at 10 uM after 48 hrs by SRB assay relative to control; details: MCF7, 48 h, read-out: GI
[26] = tested on: UACC-257; assay: Cytotoxicity against human UACC257 cells assessed as growth inhibition at 10 uM after 48 hrs by SRB assay relative to control; details: UACC-257, 48 h, read-out: GI
[27] = tested on: OVCAR-3; assay: Cytotoxicity against human OVCAR3 cells assessed as growth inhibition at 10 uM after 48 hrs by SRB assay relative to control; details: OVCAR-3, 48 h, read-out: GI
[28] = tested on: CCRF-CEM; assay: Cytotoxicity against human CCRF-CEM cells assessed as growth inhibition at 10 uM after 48 hrs by SRB assay relative to control; details: read-out: GI
[29] = tested on: SF-539; assay: Cytotoxicity against human SF539 cells assessed as growth inhibition at 10 uM after 48 hrs by SRB assay relative to control; details: SF-539, 48 h, read-out: GI
[30] = tested on: PC-3; assay: Cytotoxicity against human PC3 cells assessed as growth inhibition at 10 uM after 48 hrs by SRB assay relative to control; details: PC-3, 48 h, read-out: GI
[31] = tested on: SF-268; assay: Cytotoxicity against human SF268 cells assessed as growth inhibition at 10 uM after 48 hrs by SRB assay relative to control; details: SF-268, 48 h, read-out: GI
[32] = tested on: M14; assay: Cytotoxicity against human M14 cells assessed as growth inhibition at 10 uM after 48 hrs by SRB assay relative to control; details: M14, 48 h, read-out: GI
[33] = tested on: HCT-116; assay: Cytotoxicity against human HCT116 cells assessed as growth inhibition at 10 uM after 48 hrs by SRB assay relative to control; details: HCT-116, 48 h, read-out: GI
[34] = tested on: SF-295; assay: Cytotoxicity against human SF295 cells assessed as growth inhibition at 10 uM after 48 hrs by SRB assay relative to control; details: SF-295, 48 h, read-out: GI
[35] = tested on: SR; assay: Cytotoxicity against human SR cells assessed as growth inhibition at 10 uM after 48 hrs by SRB assay relative to control; details: read-out: GI

SMILES: O=c1oc2cc(NCCN3CCOCC3)ccc2cc1-c1nc2ccccc2[nH]1
- inhibition of growth at 10 µM [1]: 34.3%
- inhibition of growth at 10 µM [2]: 23.3%
- inhibition of growth at 10 µM [3]: < 20%
- inhibition of growth at 10 µM [4]: < 20%
- inhibition of growth at 10 µM [5]: 22.9%
- inhibition of growth at 10 µM [6]: < 20%
- inhibition of growth at 10 µM [7]: < 20%
- inhibition of growth at 10 µM [8]: < 20%
- inhibition of growth at 10 µM [9]: < 20%
- inhibition of growth at 10 µM [10]: < 20%
- inhibition of growth at 10 µM [11]: < 20%
- inhibition of growth at 10 µM [12]: < 20%
- inhibition of growth at 10 µM [13]: < 20%
- inhibition of growth at 10 µM [14]: < 20%
- inhibition of growth at 10 µM [15]: < 20%
- inhibition of growth at 10 µM [16]: < 20%
- inhibition of growth at 10 µM [17]: < 20%
- inhibition of growth at 10 µM [18]: < 20%
- inhibition of growth at 10 µM [19]: < 20%
- inhibition of growth at 10 µM [20]: < 20%
- inhibition of growth at 10 µM [21]: < 20%
- inhibition of growth at 10 µM [22]: < 20%
- inhibition of growth at 10 µM [23]: < 20%
- inhibition of growth at 10 µM [24]: < 20%
- inhibition of growth at 10 µM [25]: < 20%
- inhibition of growth at 10 µM [26]: < 20%
- inhibition of growth at 10 µM [27]: < 20%
- inhibition of growth at 10 µM [28]: < 20%
- inhibition of growth at 10 µM [29]: < 20%
- inhibition of growth at 10 µM [30]: < 20%
- inhibition of growth at 10 µM [31]: < 20%
- inhibition of growth at 10 µM [32]: < 20%
- inhibition of growth at 10 µM [33]: < 20%
- inhibition of growth at 10 µM [34]: < 20%

SMILES: CN1CCN(c2ccc3cc(-c4nc5ccccc5[nH]4)c(=O)oc3c2)CC1
- inhibition of growth at 10 µM [1]: 34.6%
- inhibition of growth at 10 µM [2]: 41.1%
- inhibition of growth at 10 µM [3]: 56.4%
- inhibition of growth at 10 µM [4]: < 20%
- inhibition of growth at 10 µM [5]: < 20%
- inhibition of growth at 10 µM [35]: < 20%
- inhibition of growth at 10 µM [6]: < 20%
- inhibition of growth at 10 µM [7]: < 20%
- inhibition of growth at 10 µM [8]: 29.8%
- inhibition of growth at 10 µM [9]: < 20%
- inhibition of growth at 10 µM [10]: < 20%
- inhibition of growth at 10 µM [11]: < 20%
- inhibition of growth at 10 µM [13]: < 20%
- inhibition of growth at 10 µM [14]: < 20%
- inhibition of growth at 10 µM [15]: < 20%
- inhibition of growth at 10 µM [16]: < 20%
- inhibition of growth at 10 µM [17]: 31.7%
- inhibition of growth at 10 µM [18]: 35.4%
- inhibition of growth at 10 µM [19]: < 20%
- inhibition of growth at 10 µM [20]: < 20%
- inhibition of growth at 10 µM [21]: 20.1%
- inhibition of growth at 10 µM [22]: < 20%
- inhibition of growth at 10 µM [23]: < 20%
- inhibition of growth at 10 µM [24]: < 20%
- inhibition of growth at 10 µM [25]: 26.3%
- inhibition of growth at 10 µM [26]: 25.3%
- inhibition of growth at 10 µM [27]: < 20%
- inhibition of growth at 10 µM [28]: 26.5%
- inhibition of growth at 10 µM [29]: < 20%
- inhibition of growth at 10 µM [30]: < 20%
- inhibition of growth at 10 µM [31]: < 20%
- inhibition of growth at 10 µM [32]: < 20%
- inhibition of growth at 10 µM [33]: < 20%
- inhibition of growth at 10 µM [34]: < 20%
